Measured values published in patent US9815839B2, “N-(1-(substituted-phenyl)ethyl)-9H-purin-6-amines as PI3K inhibitors” (Incyte Corporation, priority 2010, dated 2017).
pIC50: −log10 of the molar value.

Key:
[1] = test system: Pfeiffer cell line (diffuse large B cell lymphoma); assay: Pfeiffer cell proliferation assay; type: cell-based; conditions: Homo sapiens, Pfeiffer, Pfeiffer cells, 3-4 days plus 12 hours [3H]-thymidine incorporation
Procedure, shortened: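 Pfeiffer DLBCL cells grown in RPMI/10% FBS at 2×10^3 cells/well in ultra-low-binding plates with a range of compound concentrations for 3-4 days. [3H]-thymidine (1 μCi/well) was then added for 12 h more. Incorporation was read by filtration and scintillation counting.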

[2] = target: T1, PI3Kδ (p110δ/p85α) (Homo sapiens, UniProt O00329); assay: PI3Kδ scintillation proximity assay; type: biochemical; conditions: 20 μM ATP, 4 nM PI3Kδ
T1 construct: purchased Millipore (Bedford, Mass.)
Procedure, shortened: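 Radiometric SPA: product captured on WGA beads after EDTA quench and counted, IC50 fitted against log inhibitor concentration. Reactions ran 210 min at room temperature with 4 nM PI3Kδ (p110δ/p85α), 20 μM each PIP2 and ATP plus 33P-ATP, pH 6.7 MOPS buffer, 0.5% DMSO final.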

T1 sequence (O00329 whole entry, species assumed): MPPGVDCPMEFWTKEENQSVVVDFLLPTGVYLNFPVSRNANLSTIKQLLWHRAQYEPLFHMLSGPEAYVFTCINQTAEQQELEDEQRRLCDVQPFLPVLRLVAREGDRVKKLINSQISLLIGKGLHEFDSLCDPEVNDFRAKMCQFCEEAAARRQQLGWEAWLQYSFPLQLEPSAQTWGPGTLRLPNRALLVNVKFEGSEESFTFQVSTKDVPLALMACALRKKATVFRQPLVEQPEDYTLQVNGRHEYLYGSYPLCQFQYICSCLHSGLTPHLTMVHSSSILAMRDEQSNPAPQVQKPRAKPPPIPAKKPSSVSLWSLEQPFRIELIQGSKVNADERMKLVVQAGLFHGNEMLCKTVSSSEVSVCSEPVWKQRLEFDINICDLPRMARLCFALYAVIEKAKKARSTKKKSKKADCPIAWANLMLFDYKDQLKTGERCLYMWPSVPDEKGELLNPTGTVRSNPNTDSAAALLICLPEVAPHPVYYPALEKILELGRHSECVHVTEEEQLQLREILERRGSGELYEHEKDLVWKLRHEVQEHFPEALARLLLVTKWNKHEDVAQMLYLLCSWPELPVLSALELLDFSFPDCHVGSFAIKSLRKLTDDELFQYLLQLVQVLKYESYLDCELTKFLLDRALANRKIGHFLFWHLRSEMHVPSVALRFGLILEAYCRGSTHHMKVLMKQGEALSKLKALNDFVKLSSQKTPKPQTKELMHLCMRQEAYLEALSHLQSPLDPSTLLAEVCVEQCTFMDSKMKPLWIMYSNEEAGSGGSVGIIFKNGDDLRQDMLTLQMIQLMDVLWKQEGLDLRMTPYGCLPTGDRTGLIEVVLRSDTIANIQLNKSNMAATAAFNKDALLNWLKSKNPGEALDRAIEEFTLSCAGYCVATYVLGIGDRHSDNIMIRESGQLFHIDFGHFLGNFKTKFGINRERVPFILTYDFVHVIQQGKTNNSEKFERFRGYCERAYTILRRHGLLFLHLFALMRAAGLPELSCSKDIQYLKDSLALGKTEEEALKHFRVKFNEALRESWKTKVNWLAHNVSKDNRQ
T1 sequence (P27986 whole entry partner, species assumed): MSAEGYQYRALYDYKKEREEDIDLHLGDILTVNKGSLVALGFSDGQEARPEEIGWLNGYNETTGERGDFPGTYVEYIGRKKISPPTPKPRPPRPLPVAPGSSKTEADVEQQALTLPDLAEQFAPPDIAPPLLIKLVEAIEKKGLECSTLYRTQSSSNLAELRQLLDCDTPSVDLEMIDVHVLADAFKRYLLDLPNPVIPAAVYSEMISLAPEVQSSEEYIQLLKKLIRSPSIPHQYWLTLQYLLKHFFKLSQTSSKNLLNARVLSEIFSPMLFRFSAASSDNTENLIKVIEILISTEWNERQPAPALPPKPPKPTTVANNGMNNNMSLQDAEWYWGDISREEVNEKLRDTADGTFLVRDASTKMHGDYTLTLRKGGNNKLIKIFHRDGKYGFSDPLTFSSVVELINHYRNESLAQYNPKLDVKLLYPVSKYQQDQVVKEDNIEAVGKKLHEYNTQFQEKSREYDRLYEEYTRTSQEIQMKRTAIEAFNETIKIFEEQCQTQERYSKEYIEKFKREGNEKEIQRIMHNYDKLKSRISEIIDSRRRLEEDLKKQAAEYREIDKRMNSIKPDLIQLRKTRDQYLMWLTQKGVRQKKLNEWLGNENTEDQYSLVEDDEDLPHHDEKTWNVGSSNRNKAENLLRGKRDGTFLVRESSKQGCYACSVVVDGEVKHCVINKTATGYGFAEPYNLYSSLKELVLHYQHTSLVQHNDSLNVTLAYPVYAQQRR

| Structure (SMILES) | pIC50 [1] | pIC50 [2] |
| --- | --- | --- |
| COc1c(C(C)Nc2ncnc3[nH]cnc23)cc(Cl)c(C)c1-c1cccc(C(=O)N(C)C)n1 (stereo not drawn) [Example 177, 6-{3-chloro-6-methoxy-2-methyl-5-[1-(9H-purin-6-ylamino)ethyl]phenyl}-N,N-dimethylpyridine-2-carboxamide bis(2,2,2-trifluoroacetate)] | > 7.00 | > 7.30 |
| COc1c(C(C)Nc2ncnc3[nH]cnc23)cc(Cl)c(C)c1-c1cc(C(=O)N(C)C)cnn1 (stereo not drawn) [Example 178, 6-{3-chloro-6-methoxy-2-methyl-5-[1-(9H-purin-6-ylamino)ethyl]phenyl}-N,N-dimethylpyridazine-4-carboxamide bis(2,2,2-trifluoroacetate)] | > 7.00 | > 7.30 |
| CCOc1c(C(C)Nc2ncnc3[nH]cnc23)cc(Cl)c(C#N)c1-c1ccc(C(=O)N(C)C)nc1 (stereo not drawn) [Example 179, 5-{3-chloro-2-cyano-6-ethoxy-5-[1-(9H-purin-6-ylamino)ethyl]phenyl}-N,N-dimethylpyridine-2-carboxamide bis(2,2,2-trifluoroacetate)] | > 7.00 | > 7.30 |
| CCOc1c(C(C)Nc2ncnc3[nH]cnc23)cc(Cl)c(C#N)c1-c1ccc(C(C)O)nc1 (stereo not drawn) [Example 180, 6-chloro-3-ethoxy-2-[6-(1-hydroxyethyl)pyridin-3-yl]-4-[1-(9H-purin-6-ylamino)ethyl]benzonitrile bis(2,2,2-trifluoroacetate)] | > 7.00 | > 7.30 |
| COc1c(C(C)Nc2ncnc3[nH]cnc23)cc(Cl)c(Cl)c1C1CN(C(C)C)C1 (stereo not drawn) [Example 194, N-{1-[4,5-Dichloro-3-(1-isopropylazetidin-3-yl)-2-methoxyphenyl]ethyl}-9H-purin-6-amine bis(trifluoroacetate)] | > 7.00 | > 7.30 |
| COc1c(C(C)Nc2ncnc3[nH]cnc23)cc(Cl)c(Cl)c1C1CN(C(C)=O)C1 (stereo not drawn) [Example 195, N-{1-[3-(1-Acetylazetidin-3-yl)-4,5-dichloro-2-methoxyphenyl]ethyl}-9H-purin-6-amine] | > 7.00 | > 7.30 |
| COc1c(C(C)Nc2ncnc3[nH]cnc23)cc(Cl)c(Cl)c1C1CN(CCCC(F)(F)F)C1 (stereo not drawn) [Example 203, N-(1-{4,5-Dichloro-2-methoxy-3-[1-(4,4,4-trifluorobutyl)azetidin-3-yl]phenyl}ethyl)-9H-purin-6-amine] | > 7.00 | > 7.30 |
| COc1c(C(C)Nc2ncnc3[nH]cnc23)cc(Cl)c(Cl)c1C1CN(Cc2cscn2)C1 (stereo not drawn) [Example 204, N-(1-{4,5-Dichloro-2-methoxy-3-[1-(1,3-thiazol-4-ylmethyl)azetidin-3-yl]phenyl}ethyl)-9H-purin-6-amine] | > 7.00 | > 7.30 |
| COc1c(C(C)Nc2ncnc3[nH]cnc23)cc(Cl)c(Cl)c1C1CN(CCC(F)(F)F)C1 (stereo not drawn) [Example 205, N-(1-{4,5-Dichloro-2-methoxy-3-[1-(3,3,3-trifluoropropyl)azetidin-3-yl]phenyl}ethyl)-9H-purin-6-amine] | > 7.00 | > 7.30 |
| COc1c(C(C)Nc2ncnc3[nH]cnc23)cc(Cl)c(Cl)c1C1CN(C(C)CO)C1 (stereo not drawn) [Example 208, 2-(3-{2,3-Dichloro-6-methoxy-5-[1-(9H-purin-6-ylamino)ethyl]phenyl}azetidin-l-yl)propan-1-ol bistrifluoroacetate] | > 7.00 | > 7.30 |
| CCOc1c(C(C)Nc2ncnc3[nH]cnc23)cc(C#N)c(F)c1-c1cncc(S(C)(=O)=O)c1 (stereo not drawn) [Example 212, 4-Ethoxy-2-fluoro-3-[5-(methylsulfonyl)pyridin-3-yl]-5-[1-(9H-purin-6-ylamino)ethyl]benzonitrile bis(trifluoroacetate)] | 6.30 to 7.00 | > 7.30 |
| CCOc1c(C(C)Nc2ncnc3[nH]cnc23)cc(Cl)c(C#N)c1C1CN(CC)C1 (stereo not drawn) [Example 213, 6-Chloro-3-ethoxy-2-(1-ethylazetidin-3-yl)-4-[1-(9H-purin-6-ylamino)ethyl]benzonitrile bis(trifluoroacetate)] | > 7.00 | > 7.30 |

Next, values leading:

| pIC50 [1] | pIC50 [2] | Structure (SMILES) |
| --- | --- | --- |
| > 7.00 | > 7.30 | COc1c(C(C)Nc2ncnc3[nH]cnc23)cc(Cl)c(Cl)c1C1CN(CCO)C1 (stereo not drawn) [Example 196, 2-(3-{2,3-Dichloro-6-methoxy-5-[1-(9H-purin-6-ylamino)ethyl]phenyl}azetidin-1-yl)ethanol bis(trifluoroacetate)] |
| > 7.00 | > 7.30 | COc1c(C(C)Nc2ncnc3[nH]cnc23)cc(Cl)c(Cl)c1C1CN(C2CCOC2)C1 (stereo not drawn) [Example 197, N-(1-{4,5-Dichloro-2-methoxy-3-[1-(tetrahydrofuran-3-yl)azetidin-3-yl]phenyl}ethyl)-9H-purin-6-amine bistrifluoroacetate] |
| > 7.00 | > 7.30 | COc1c(C(C)Nc2ncnc3[nH]cnc23)cc(Cl)c(Cl)c1C1CN(C)C1 (stereo not drawn) [Example 199, N-{1-[4,5-Dichloro-2-methoxy-3-(1-methylazetidin-3-yl)phenyl]ethyl}-9H-purin-6-amine] |
| > 7.00 | > 7.30 | COCCN1CC(c2c(Cl)c(Cl)cc(C(C)Nc3ncnc4[nH]cnc34)c2OC)C1 (stereo not drawn) [Example 200, N-(1-{4,5-Dichloro-2-methoxy-3-[1-(2-methoxyethyl)azetidin-3-yl]phenyl}ethyl)-9H-purin-6-amine] |
| > 7.00 | > 7.30 | COc1c(C(C)Nc2ncnc3[nH]cnc23)cc(Cl)c(Cl)c1C1CN(CC2CC2)C1 (stereo not drawn) [Example 201, N-(1-{4,5-Dichloro-3-[1-(cyclopropylmethyl)azetidin-3-yl]-2-methoxyphenyl}ethyl)-9H-purin-6-amine] |
| > 7.00 | > 7.30 | COc1c(C(C)Nc2ncnc3[nH]cnc23)cc(Cl)c(Cl)c1C1CN(CC2CCOC2)C1 (stereo not drawn) [Example 202, N-(1-{4,5-dichloro-2-methoxy-3-[1-(tetrahydrofuran-3-ylmethyl)azetidin-3-yl]phenyl}ethyl)-9H-purin-6-amine] |
